Laboratory results: patent US11904008B2, “Preparation of live vaccines” (priority 2012, dated 2024)
Values after ≈ are worked out from the molar mass of the structure shown.

How the values were obtained:
Test in all cases: MIC values of wild type strains
Assay type in all cases: cell-based
[1] = system: Campylobacter jejuni WS II; conditions: wild type strain Campylobacter jejuni WS II; unit assumed
[2] = system: Campylobacter coli WS II; conditions: wild type strain Campylobacter coli WS II; unit assumed
[3] = system: Salmonella enterica subsp. enterica serovar Infantis; conditions: wild type strain Salmonella Infantis; unit assumed
[4] = system: Salmonella enterica subsp. enterica serovar Virchow; conditions: wild type strain Salmonella Virchow; unit assumed
[5] = system: Salmonella enterica subsp. enterica serovar Hadar; conditions: wild type strain Salmonella Hadar; unit assumed
[6] = system: Campylobacter jejuni WS I; conditions: wild type strain Campylobacter jejuni WS I; unit assumed
[7] = system: Campylobacter coli WS I; conditions: wild type strain Campylobacter coli WS I; unit assumed
[8] = system: Salmonella paratyphi B (var. L-tartrate+); conditions: wild type strain Salmonella paratyphi B (var. L-tartrate+); unit assumed

Work on `[H]/N=C(/N)N[C@H]1[C@H](O)[C@@H](O)[C@H](O[C@@H]2O[C@@H](C)[C@](O)(C=O)[C@H]2O[C@@H]2O[C@@H](CO)[C@H](O)[C@@H](O)[C@@H]2NC)[C@@H](N/C(N)=N\[H])[C@@H]1O` [Streptomycin] yielded an MIC [1] of 2 µg/mL (≈ 3.44 µM), an MIC [2] of 1 µg/mL (≈ 1.72 µM) and an MIC [3] of 12.5 µg/mL (≈ 21.5 µM). For the same molecule, the MIC [4] was 12.5 µg/mL (≈ 21.5 µM), the MIC [5] was 25 µg/mL (≈ 43 µM) and the MIC [6] was 2 µg/mL (≈ 3.44 µM). It also gave an MIC [7] of 1 µg/mL (≈ 1.72 µM) and an MIC [8] of 30 µg/mL (≈ 51.6 µM).

`C[C@@H]1O[C@@H]1P(=O)(O)O` [fosfomycin] gave an MIC [1] of 25 µg/mL (≈ 181 µM), an MIC [2] of 25 µg/mL (≈ 181 µM) and an MIC [6] of 25 µg/mL (≈ 181 µM). The MIC [7] was 25 µg/mL (≈ 181 µM).
